Experiments:
[1] = target: mouse EP1 receptor (Mus musculus (Mouse), UniProt P35375); test: Measurement of EP1 Antagonist Activity (inhibition of PGE2-induced increase in intracellular calcium); type: cell-based; details: cells expressing mouse EP1 receptor; increase in intracellular calcium induced by PGE2 (100 nM)
Method: The cells expressing mouse EP1 receptor were seeded at 10^4 cells/well in 96-well plates and cultured for 2 days with 10% Fetal Bovine Serum (FBS)/alpha Modified Eagle Medium (αMEM) in the incubator (37° C., 5% CO2). The cells were washed with phosphate buffer, and load buffer (10% FBS/αMEM containing Fura2/AM (5 μM), indomethacin (20 μM) and probenecid (2.5 mM)) was then added to each well and cells were left standing for 1 hour. Load buffer of each well was discarded and assay buffer (Hank's Balanced Salt Solution (HBSS) containing indomethacin (2.5 mM), probenecid (2.5 mM), HEPES-NaOH (10 mM) and 0.1% (w/v) Bovine Serum Albumin (BSA)) was added to each well and plates were left at room temperature in a dark room for 1 hour. Afterwards, compounds of the present invention (10 μL) or PGE2 (10 μL) prepared with assay buffer was added to each well and intracellular calcium concentrations were measured using a Fluorescence Drug Screening System (FDSS-4000, Hamamatsu Photonics K.K.). Changes in ratio of fluorescent intensity at 500 nm in cells exposed to alternating 2 excitation wavelengths was monitored as changes in intracellular calcium concentrations.
IC50 values were calculated based on the response inhibition rate of increase in intracellular calcium concentrations induced by PGE2 (100 nM) and was used as an index of EP1 antagonistic activity.

[2] = tested on: male cynomolgus monkeys; test: Animal model of dysuria induced by intravesical infusion of ATP (singlecystometry); type: in vivo, cynomolgus monkey; details: ATP solution intravesical, compound A 0.1 mg/kg subcutaneous
Method: After administration of ketamine hydrochloride anesthesia (15 to 20 mg/kg), male cynomolgus monkeys (11 years, 3 male (symbol “∘” in the FIG. 1 and FIG. 2 represents individual one.)) were fixed onto a stereotaxic operating table. The top of the bladder catheter was connected to a pressure transducer via a three-way stopcock, and intravesical pressure was recorded using a distortion amplifier and a recorder. The other end of the three-way stopcock were connected to a syringe for intravesical infusion to which an infusion pump was connected and a extension tube which satisfied physiological saline to remove residual urine from bladder.
The physiological saline was infused into the bladder at an infusion rate of 1.5 to 7.0 mL/min, and immediately after completion of voiding, the intravesical infusion was terminated and residual urine was removed (hereinafter, the above procedures is assumed singlecystometry.) and the procedures were repeated. […] Urinary flow rate (voided volume per voiding time (mL/sec)) and residual urine rate (residual urine volume per voided volume (%)) were calculated for each of the singlecystometry before ATP perfusion, after ATP perfusion and after ATP perfusion conducted after administration of the compound A. The results are shown in FIG. 1 and FIG. 2.

Sequence of mouse EP1 receptor (P35375 whole entry): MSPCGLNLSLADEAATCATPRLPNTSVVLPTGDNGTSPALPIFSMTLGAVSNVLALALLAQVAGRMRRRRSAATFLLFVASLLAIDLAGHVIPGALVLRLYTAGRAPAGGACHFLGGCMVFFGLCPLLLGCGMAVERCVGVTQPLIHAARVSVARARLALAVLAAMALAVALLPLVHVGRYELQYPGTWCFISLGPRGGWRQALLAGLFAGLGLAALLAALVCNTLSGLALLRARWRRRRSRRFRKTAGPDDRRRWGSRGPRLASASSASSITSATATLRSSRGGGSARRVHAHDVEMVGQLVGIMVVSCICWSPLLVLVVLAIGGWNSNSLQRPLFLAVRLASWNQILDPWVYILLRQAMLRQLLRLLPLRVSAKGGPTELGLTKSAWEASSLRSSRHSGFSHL

Cc1cc(C(=O)O)ccc1COc1cc2c(cc1N(CC(C)C)S(=O)(=O)c1nccs1)CCC2 [Compound A, 3-methyl-4-[6-[N-isobutyl-N-(2-thiazolylsulfonyl)amino]indan-5-yloxymethyl]benzoic acid]
IC50 [1]: 6.9 nM | Urinary flow rate (voided volume per voiding time) ([2]; FIG. 1): recovered the urinary flow rate decreased by ATP | Residual urine rate (residual urine volume per voided volume) ([2]; FIG. 2): decreased the residual urine rate

Cc1ccc(S(=O)(=O)N(CC(C)C)c2cc3c(cc2OCc2ccc(C=CC(=O)O)cc2)CCC3)o1 [Compound E, 4-[6-[N-isobutyl-N-(5-methyl-2-furylsulfonyl)amino]indan-5-yloxymethyl]cinnamic acid]
IC50 [1]: 21 nM

Cc1csc(S(=O)(=O)N(CC(C)C)c2ccc(C(F)(F)F)cc2OCc2ccc(C=CC(=O)O)cc2)n1 [Compound G, 4-[2-[N-isobutyl-N-(4-methyl-2-thiazolylsulfonyl)amino]-5-trifluoromethylphenoxymethyl]cinnamic acid]
IC50 [1]: 25 nM

Cc1cc(OCc2ccc(C=CC(=O)O)cc2C)c(N(CC(C)C)S(=O)(=O)c2cccnc2)cc1C [Compound I, 3-methyl-4-[2-[N-isobutyl-N-(3-pyridylsulfonyl)amino]-4,5-dimethylphenoxymethyl]cinnamic acid]
IC50 [1]: 9.2 nM

Cc1csc(S(=O)(=O)N(c2cc(C)c(Cl)cc2OCc2ccc(-c3nnn[nH]3)cc2)C(C)C)n1 [Compound J, N-[4-chloro-5-methyl-2-[4-(5-tetrazolyl)phenylmethyloxy]phenyl]-N-isopropyl-(4-methyl-2-thiazolyl)sulfonylamide]
IC50 [1]: 4.9 nM

Cc1cc(OCc2ccc(-c3nnn[nH]3)cc2Cl)c(N(C(C)C)S(=O)(=O)c2cccnc2)cc1C [Compound K, N-[4,5-dimethyl-2-[2-chloro-4-(5-tetrazolyl)phenylmethyloxy]phenyl]-N-isopropyl-3-pyridylsulfonylamide]
IC50 [1]: 3.7 nM

Cc1csc(S(=O)(=O)N(c2cc(C)c(C)cc2OCc2ccc(-c3noc(=O)[nH]3)cc2)C(C)C)n1 [Compound L, N-[4,5-dimethyl-2-[4-(5-oxo-1,2,4-oxadiazol-3-yl)phenylmethyloxy]phenyl]-N-isopropyl-(4-methyl-2-thiazolyl)sulfonylamide]
IC50 [1]: 7.1 nM

Source: US9181187B2, “Therapeutic agent for urinary excretion disorder” (ONO PHARMACEUTICAL CO., LTD., priority 2007, dated 2015)
